Data from ChEMBL document CHEMBL1152340, “Flavonoid glucuronides and a chromone from the aquatic macrophyte Stratiotes aloides” (2009).
The source made the active and inactive calls. The rule behind the calls is not given here.

Columns and labels:
SH-SY5Y [1] = experiment: Cytotoxicity against human SH-SY5Y cells at 10 uM after 4 days by DAPI staining method; format: functional
SH-SY5Y [2] = experiment: Cytotoxicity against human SH-SY5Y cells at 50 uM after 4 days by DAPI staining method; format: functional
[3] = Cytotoxicity against human PA-TU-8902 cells at 50 uM after 4 days by DAPI staining method relative to control; format: functional
SH-SY5Y [4] = experiment: Cytotoxicity against human SH-SY5Y cells after 4 days by DAPI staining method; format: functional, cell-based
SH-SY5Y [5] = experiment: Induction of apoptosis in human SH-SY5Y cells assessed as DNA fragmentation at 50 uM after 4 days by Hoechst 33342 method; format: functional, cell-based

In the case of `O=C(O)[C@H]1O[C@@H](O[C@H]2[C@H](Oc3cc(O)c4c(=O)cc(-c5ccc(O)c(O)c5)oc4c3)O[C@H](CO)[C@@H](O)[C@@H]2O)[C@H](O)[C@@H](O)[C@@H]1O`, the Activity (SH-SY5Y [1]) is reported as 75%, the Activity (SH-SY5Y [2]) is reported as 75% and the Activity [3] is reported as 20%. For the same compound, the Activity (SH-SY5Y [4]) was “Dose-dependent effect” and the Activity (SH-SY5Y [5]) was “Active”.
